# Experimental data taken from patent publication US20110081410A1, “THERAPEUTIC AGENT FOR LOCAL INFLAMMATION” (ST. MARIANNA UNIVERSITY, SCHOOL OFMEDICINE, priority 2005, published 2011).
# System: Synovial cells from OA patients
# Details: retinoic acid 0.05%, 6 hours after addition, colloidal iron staining
# Description: Synovial cells from OA patients were cultured, and the retinoic acid nanocapsule containing calcium carbonate as an ingredient of the capsule produced in Example 1, and retinoic acid (atRA) were added thereto. Six hours after the addition, colloidal iron staining was performed to confirm the status of hyaluronic acid production. The evaluation groups were: DMSO as control, atRA, and the retinoic acid nanocapsule. The concentration of added retinoic acid was set 0.05% in both groups of atRA and retinoic acid nanocapsule.
structure (smiles),measurement,value
"CC1=C(/C=C/C(C)=C/C=C/C(C)=C/C(=O)O)C(C)(C)CCC1 [atRA, All-trans retinoic acid]",Hyaluronic acid production,confirmed
